In publication PMC9403976, “Elucidating the path to Plasmodium prolyl-tRNA synthetase inhibitors that overcome halofuginone resistance” (Nature Communications, 2022):
“And” between values parts separate entries of the source, which are not always exact repeats. Equal entries are not always repeated.

Target: HsProRS (Homo sapiens, UniProt P07814)
Assay: TR-FRET ligand displacement assay with tracer MAT379 (CoraFluor-1-Halo and anti-His6 antibody formats)
Type: binding
Design: made in house; host or cells: E. coli SoluBL-21
Conditions: for normalized TR-FRET ligand displacement signal, dose-response replicates (SI Fig 6) / TR-FRET dose-response, normalized signal (SI Fig 11) / normalized TR-FRET signal (dose-response replicates): listed as NCP26 (3); for TR-FRET dose-response, normalized signal (SI Fig 11): individual replicates; for normalized TR-FRET signal (dose-response replicates): SI Fig 15

Chain of HsProRS (P07814 996-1512): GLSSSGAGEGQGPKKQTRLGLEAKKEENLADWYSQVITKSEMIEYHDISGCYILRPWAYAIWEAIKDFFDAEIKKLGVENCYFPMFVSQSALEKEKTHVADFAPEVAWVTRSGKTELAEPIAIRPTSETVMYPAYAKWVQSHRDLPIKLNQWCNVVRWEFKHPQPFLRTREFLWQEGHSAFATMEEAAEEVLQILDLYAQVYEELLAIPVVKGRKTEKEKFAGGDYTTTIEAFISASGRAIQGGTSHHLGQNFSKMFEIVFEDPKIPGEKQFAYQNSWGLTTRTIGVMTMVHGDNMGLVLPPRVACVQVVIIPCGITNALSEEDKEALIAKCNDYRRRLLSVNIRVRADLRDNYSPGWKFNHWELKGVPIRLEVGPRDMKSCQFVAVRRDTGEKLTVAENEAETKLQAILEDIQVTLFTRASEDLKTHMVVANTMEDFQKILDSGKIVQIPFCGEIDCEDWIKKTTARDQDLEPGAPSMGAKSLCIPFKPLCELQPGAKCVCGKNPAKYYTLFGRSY

SMILES: O=C(NC1Cc2ccccc2C1)c1nccnc1NC(=O)N1CCCCC1 [NCP26]
- normalized TR-FRET ligand displacement signal, dose-response replicates (SI Fig 6) (Log[inhibitor] (M) -5.601): 1.19E-01 and 1.01E-01
- normalized TR-FRET ligand displacement signal, dose-response replicates (SI Fig 6) (Log[inhibitor] (M) -5.902): 2.03E-01 and 2.10E-01
- TR-FRET dose-response, normalized signal (SI Fig 11) (Log[inhibitor] (M) -5.904): 2.33E-01 and 2.21E-01 and 2.09E-01
- normalized TR-FRET ligand displacement signal, dose-response replicates (SI Fig 6) (Log[inhibitor] (M) -6.203): 4.13E-01 and 3.59E-01
- TR-FRET dose-response, normalized signal (SI Fig 11) (Log[inhibitor] (M) -6.208): 3.61E-01 and 2.97E-01 and 3.35E-01
- TR-FRET dose-response, normalized signal (SI Fig 11) (Log[inhibitor] (M) -6.509): 4.65E-01 and 4.29E-01 and 4.89E-01
- normalized TR-FRET ligand displacement signal, dose-response replicates (SI Fig 6) (Log[inhibitor] (M) -6.513): 6.17E-01 and 6.51E-01
- TR-FRET dose-response, normalized signal (SI Fig 11) (Log[inhibitor] (M) -6.796): 6.56E-01 and 6.91E-01 and 6.47E-01
- normalized TR-FRET ligand displacement signal, dose-response replicates (SI Fig 6) (Log[inhibitor] (M) -6.796): 7.87E-01 and 8.56E-01
- TR-FRET dose-response, normalized signal (SI Fig 11) (Log[inhibitor] (M) -7.108): 8.29E-01 and 7.76E-01 and 7.86E-01
- normalized TR-FRET ligand displacement signal, dose-response replicates (SI Fig 6) (Log[inhibitor] (M) -7.108): 8.95E-01 and 9.07E-01
- normalized TR-FRET ligand displacement signal, dose-response replicates (SI Fig 6) (Log[inhibitor] (M) -7.405): 9.57E-01 and 8.55E-01
- TR-FRET dose-response, normalized signal (SI Fig 11) (Log[inhibitor] (M) -7.409): 9.33E-01 and 8.84E-01 and 8.96E-01
- TR-FRET dose-response, normalized signal (SI Fig 11) (Log[inhibitor] (M) -7.710): 1.01E+00 and 8.77E-01 and 8.78E-01
- normalized TR-FRET ligand displacement signal, dose-response replicates (SI Fig 6) (Log[inhibitor] (M) -7.714): 1.05E+00 and 9.22E-01
- TR-FRET dose-response, normalized signal (SI Fig 11) (Log[inhibitor] (M) -8.000): 9.74E-01 and 9.83E-01 and 9.34E-01
- normalized TR-FRET ligand displacement signal, dose-response replicates (SI Fig 6) (Log[inhibitor] (M) -8.000): 1.02E+00 and 1.00E+00
- normalized TR-FRET signal (Fig 2j) (Log[inhibitor] (M) -8.013): 3.80E-01 and 4.41E-01 and 3.90E-01
- TR-FRET dose-response, normalized signal (SI Fig 11) (Log[inhibitor] (M) -8.301): 1.04E+00 and 9.70E-01 and 9.69E-01
- normalized TR-FRET signal (Fig 2j) (Log[inhibitor] (M) -8.314): 5.85E-01 and 7.34E-01 and 6.18E-01
- normalized TR-FRET ligand displacement signal, dose-response replicates (SI Fig 6) (Log[inhibitor] (M) -8.331): 1.04E+00 and 1.00E+00
- normalized TR-FRET ligand displacement signal, dose-response replicates (SI Fig 6) (Log[inhibitor] (M) -8.574): 1.00E+00 and 9.98E-01
- TR-FRET dose-response, normalized signal (SI Fig 11) (Log[inhibitor] (M) -8.602): 1.02E+00 and 9.93E-01 and 9.50E-01
- normalized TR-FRET signal (Fig 2j) (Log[inhibitor] (M) -8.615): 7.72E-01 and 8.28E-01 and 8.16E-01
- normalized TR-FRET signal (Fig 2j) (Log[inhibitor] (M) -8.916): 9.01E-01 and 9.63E-01 and 9.82E-01
- TR-FRET dose-response, normalized signal (SI Fig 11) (Log[inhibitor] (M) -9.000): 9.79E-01 and 9.82E-01 and 1.02E+00
- normalized TR-FRET signal (Fig 2j) (Log[inhibitor] (M) -9.217): 9.20E-01 and 1.06E+00
- TR-FRET dose-response, normalized signal (SI Fig 11) (Log[inhibitor] (M) -9.301): 1.04E+00 and 1.00E+00 and 9.65E-01
- normalized TR-FRET signal (dose-response replicates) (Log[inhibitor] (M) -4.99976): 2.27E-01 and 3.58E-01 and 2.56E-01
- normalized TR-FRET signal (dose-response replicates) (Log[inhibitor] (M) -5.3009): 5.51E-01 and 1.03E-01 and 3.27E-01
- normalized TR-FRET signal (dose-response replicates) (Log[inhibitor] (M) -5.60199): 6.05E-01 and 4.05E-01 and 4.39E-01
- normalized TR-FRET signal (dose-response replicates) (Log[inhibitor] (M) -5.90248): 4.42E-01 and 6.91E-01 and 6.09E-01
- normalized TR-FRET signal (dose-response replicates) (Log[inhibitor] (M) -6.20323): 4.30E-01 and 8.03E-01 and 7.35E-01
- normalized TR-FRET signal (dose-response replicates) (Log[inhibitor] (M) -6.51347): 8.28E-01 and 6.81E-01 and 6.14E-01
- normalized TR-FRET signal (dose-response replicates) (Log[inhibitor] (M) -6.79595): 1.04E+00 and 6.14E-01 and 1.23E+00
- normalized TR-FRET signal (dose-response replicates) (Log[inhibitor] (M) -7.10794): 8.29E-01 and 9.88E-01 and 1.04E+00
- normalized TR-FRET signal (dose-response replicates) (Log[inhibitor] (M) -7.40526): 1.19E+00 and 8.56E-01 and 7.59E-01
- normalized TR-FRET signal (dose-response replicates) (Log[inhibitor] (M) -7.7137): 9.63E-01 and 9.49E-01 and 1.37E+00
- normalized TR-FRET signal (dose-response replicates) (Log[inhibitor] (M) -8): 8.45E-01 and 9.90E-01 and 8.83E-01
- normalized TR-FRET signal (dose-response replicates) (Log[inhibitor] (M) -8.331): 9.93E-01 and 9.01E-01 and 8.86E-01
- normalized TR-FRET signal (dose-response replicates) (Log[inhibitor] (M) -8.57403): 9.84E-01 and 9.89E-01 and 1.13E+00
- normalized TR-FRET signal (dose-response replicates) (Log[inhibitor] (M) -8.87506): 9.25E-01 and 9.80E-01 and 7.66E-01
- normalized TR-FRET signal (dose-response replicates) (Log[inhibitor] (M) -9.17609): 7.05E-01 and 1.05E+00 and 1.13E+00
